Results reported in US12447167B2, “GM-CSF-producing t-cell control agent and Th1/Th2 immune balance regulator” (National Center of Neurology and Psychiatry, priority 2014, dated 2025).

Assays:
[1] = Disposition after single oral dose, MS patients; format: in vivo, human; details: 0.3 mg/body single oral
Experimental: In the similar manner as in Example 5, a single dose of compound 31 labeled with ^14C was orally administered to each of 2 MS patients (subjects) after obtainment of informed consent, and the concentration of the compound in blood was measured and each parameter was calculated by collecting blood after a lapse of a given time.

IL-17 = IL-17 expression level of sorted CD4-positive memory T-cells of MS patients (ELISA of culture supernatant); format: in vivo, human; details: 0.3 mg single oral
Experimental: A single dose of compound 31, which is a synthetic glycolipid of the present invention, described in the first aspect was orally administered to each of 2 MS patients (subjects) shown in Table 2 above after obtainment of informed consent. The dose was set to 0.3 mg per person.
Subsequently, T-cell subfractions were prepared from the peripheral blood of each subject by using the density gradient centrifugation method. First, a total of 20 mL of blood was collected from the vein of each subject 24 hours (1st day), 48 hours (2nd day), 72 hours (3rd day), 168 hours (7th day), and 192 hours (8th day) after the administration of compound 31 by using two 10-mL heparin sodium-containing vacuum blood collection tubes. For a control, 20 mL of blood was similarly collected from the vein of each subject one day before the administration of compound 31.
The collected PBMCs were stained with antibodies by the following method. First, 10 μL of a solution consisting of 20 μL of MACS buffer, 0.25 μL of APC-Cy7-anti-CD3 antibody (BioLegend, Inc.), 1 μL of PB-anti-CD4 antibody (BioLegend, Inc.), 1 μL of PerCP-Cy5.5-anti-CD45RA antibody (BioLegend, Inc.), and 1 μL of PC7-anti-CD56 antibody (Beckman Coulter, Inc.) was added to 6×10^6 cells of PBMCs, thoroughly mixed by vortexing, and then left on ice for 20 minutes. CD56 is a detection marker of cells having NK activity, and CD3^−CD56^− cells indicate being antigen-presenting cells (APCs). […]
mCD4T and APC obtained by the sorting were each suspended in a medium consisting of 500 mL of RPMI1640 (GIBCO/Thermo Fisher Scientific Inc.), 5 mL of glutamine (200 mM, Wako Pure Chemical Industries, Ltd.), 5 mL of Pen/strep (10,000 U/mL, GIBCO/Thermo Fisher Scientific Inc.), 0.5 mL of 2-mercaptoethanol (GIBCO/Thermo Fisher Scientific Inc.), and 50 mL of 10% (v/v) Cellect FETAL BOVINE SERUM (MP Biomedicals, LLC), and the number of cells was measured. […]
After the culture, a culture supernatant was collected, and IFN-γ, IL-4, IL-17, and GM-CSF were measured by the ELISA method. […]

- concentration in blood in MS patients as compared with normal persons [1]: low concentration in blood
- AUC(0-t) ([1]; human, blood): 1.41 ng·h/mL
- Cmax ([1]; human, blood): 0.122 ng/mL
- Tmax ([1]; human, blood): 18 h
Structure (SMILES): CCCCCCCCCCCCCCCCCCCCCCCC(=O)NC(COC1OC(CO)C(O)C(O)C1O)[C@H](O)C(O)CCCCC (stereo in doubt) [compound 31, (2S,3S,4R)-1-O-(α-D-galactosyl)-2-(N-tetracosanoylamino)-1,3,4-nonanetriol]
- IL-17 expression level (IL-17; day 8, MBP stimulation, day −1 value 916.90): 491.24
- IL-17 expression level (IL-17; day 8, OVA stimulation, day −1 value 666.56): 158.50
- change of expression level of IL-17 (IL-17; day8 vs day-1): decreased
